{"source": "paper PMC7946403", "about": "“Targeted LC-MS/MS platform for the comprehensive determination of peptides in the kallikrein-kinin system” (Analytical and Bioanalytical Chemistry, 2021)", "note": "Structures can show the parent of a compound that is named as a salt.", "data": [{"tested_on": "artificial generation of bradykinin", "assay": "Evaluation of inhibitors preventing the artificial formation of bradykinin for generation of blank plasma", "set-up": "species or system human", "conditions": "plasma from prespiked S-Monovettes stored at 21 °C, analysed after 30 min, 1.5 h and 4.5 h, n = 3", "experimental": "Due to the endogenous presence of kinins in human plasma, it was aimed to develop a surrogate matrix mimicking human biological samples at best. Therefore, distinct serine protease inhibitors were evaluated for their ability to prevent the artificial generation of bradykinin after blood sampling. […] Therefore, plasma was drawn into prespiked S-Monovettes® and aliquots of the plasma stored at 21 °C were analysed after 30 min, 1.5 h and 4.5 h. The following inhibitors were investigated and compared to plasma without inhibitor (each n = 3): 4-(2-aminoethyl)benzolsulfonylfluoride (AEBSF), hexadimethrine bromide, aprotinin, nafamostat mesylate and leupeptin. Additionally, the final blank generation protocol was evaluated for six human sources, whose generated blanks were analysed in triplicate to ensure the depletion of endogenous peptides across multiple sources.", "values": [{"compound": "CC(=O)N[C@@H](CC(C)C)C(=O)N[C@@H](CC(C)C)C(=O)N[C@H](C=O)CCCNC(=N)N", "note": "[leupeptin]", "Prevention of artificial generation of bradykinin (in words)": "only decreased the formation of bradykinin at the 0.5 h and 1.5 h timepoints"}, {"compound": "N=C(N)c1ccc2cc(OC(=O)c3ccc(N=C(N)N)cc3)ccc2c1", "note": "[nafamostat, nafamostat mesylate]", "Prevention of artificial generation of bradykinin (in words)": "only decreased the formation of bradykinin at the 0.5 h and 1.5 h timepoints"}, {"compound": "NCCc1ccc(S(=O)(=O)F)cc1", "note": "[AEBSF, 4-(2-aminoethyl)benzolsulfonylfluoride]", "Prevention of artificial generation of bradykinin (in words)": "did not sufficiently prevent the artificial generation of bradykinin"}, {"compound": "hexadimethrine bromide", "Prevention of artificial generation of bradykinin (in words)": "lowest levels of bradykinin were detected"}, {"compound": "aprotinin", "Prevention of artificial generation of bradykinin (in words)": "did not sufficiently prevent the artificial generation of bradykinin"}]}, {"tested_on": "not given", "assay": "not given", "assay_type": "in vitro ADME, human", "conditions": "not given", "experimental": "In this study, human blank plasma was generated by sampling blood into trisodium citrate S-Monovettes® spiked with hexadimethrine bromide and nafamostat mesylate to prevent the artificial generation of bradykinin. After centrifugation at 2000×g for 10 min at room temperature, the plasma was left at room temperature for 4 h to enable degradation of short-lived kinins. The blank plasma generated was stored at −20 °C until use.\nBefore preparation of quality control (QC) or calibration curve samples, a protease inhibitor was added to blank plasma samples, following a protocol derived from Nussberger et al.. Solid-phase extraction (SPE) was performed using 96-well Oasis weak cation exchange (WCX) μ-elution plates (Waters, Milford, MA, USA). The wells were conditioned with 200 μL methanol, followed by 200 μL water. […]\nFinally, stability was examined using three replicates of four QC levels (high [750.0 pg/mL], mid [125.0 pg/mL] and low [31.1 pg/mL and 7.8 pg/mL]). […] Freeze-thaw stability was determined after one, two and four cycles of complete thawing and refreezing of samples at −80 °C. Furthermore, long-term stability of the plasma samples was analysed after 1, 2 and 4 weeks. For all stability investigations, the maximum deviation of the calculated concentration to the nominal concentration compared to a freshly prepared calibration curve was ≤15% (RE).", "values": [{"compound": "bradykinin 1-7 (RPPGFSP; Bradykinin; UniProt P01042 381-387, looked up, fragment)", "Freeze-thaw stability (in words)": "trended towards a decrease"}, {"compound": "bradykinin 1-5 (RPPGF; Bradykinin; UniProt P01042 381-385, looked up, fragment)", "Freeze-thaw stability (in words)": "trended towards a decrease"}]}]}
